Measurements published in the supplement of paper PMC11061612.

Columns and labels:
Experiment in all cases: combination Emax (second highest fraction inhibited in the dose matrix, 72 h); higher = more inhibition; extreme values may be limits of the assay
[1] = system: NOMO-1 (Acute Myeloid Leukemia)
Summary of the method: (§1)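 Cell lines in DMEM/F12 or RPMI with 10% FBS were plated in 1536-well plates, held 24 hours at 37°C, 5% CO2, then given two-drug dose matrices for 72 hours (DMSO typically 0.2%). Viability was read by CellTiter-Glo 2.0 luminescence and scaled as inhibition from 0 (vehicle wells) to 1 (blank wells). Combination Emax is the second-highest inhibition in the matrix; Bliss excess is observed combination effect minus expected EA + EB − EA·EB, EA and EB being single-agent effects.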

[2] = system: SW48 (Colorectal Carcinoma)
Summary of the method: as §1

[3] = system: BICR78 (Oral Cavity Carcinoma)
Summary of the method: as §1

[4] = system: 647-V (Bladder Carcinoma)
Summary of the method: as §1

[5] = system: HCT-116 (Colorectal Carcinoma)
Summary of the method: as §1

[6] = system: ETK-1 (Biliary Tract Carcinoma)
Summary of the method: as §1

Saos-2 (Osteosarcoma) = system: Saos-2 (Osteosarcoma)
Summary of the method: as §1

[7] = system: U-118-MG (Low Grade Glioma)
Summary of the method: as §1

[8] = system: WSU-DLCL2 (B-Cell Non-Hodgkin's Lymphoma)
Summary of the method: as §1

MCF7 (Breast Carcinoma) = system: MCF7 (Breast Carcinoma)
Summary of the method: as §1

[9] = system: SKN-3 (Head and Neck Carcinoma)
Summary of the method: as §1

[10] = system: MEG-01 (Chronic Myelogenous Leukemia)
Summary of the method: as §1

[11] = system: RCC10RGB (Kidney Carcinoma)
Summary of the method: as §1

[12] = system: SNU-61 (Colorectal Carcinoma)
Summary of the method: as §1

HCC38 (Breast Carcinoma) = system: HCC38 (Breast Carcinoma)
Summary of the method: as §1

[13] = system: SK-LMS-1 (Other Solid Carcinomas)
Summary of the method: as §1

A172 (Glioblastoma) = system: A172 (Glioblastoma)
Summary of the method: as §1

[14] = system: P31-FUJ (Acute Myeloid Leukemia)
Summary of the method: as §1

[15] = system: TYK-nu (Ovarian Carcinoma)
Summary of the method: as §1

[16] = system: SLVL (B-Cell Non-Hodgkin's Lymphoma)
Summary of the method: as §1

| Compound | combination Emax [1] | combination Emax [2] | combination Emax [3] | combination Emax [4] | combination Emax [5] | combination Emax [6] | combination Emax (Saos-2 (Osteosarcoma)) | combination Emax [7] | combination Emax [8] | combination Emax (MCF7 (Breast Carcinoma)) | combination Emax [9] | combination Emax [10] | combination Emax [11] | combination Emax [12] | combination Emax (HCC38 (Breast Carcinoma)) | combination Emax [13] | combination Emax (A172 (Glioblastoma)) | combination Emax [14] | combination Emax [15] | combination Emax [16] |
| --- | --- | --- | --- | --- | --- | --- | --- | --- | --- | --- | --- | --- | --- | --- | --- | --- | --- | --- | --- | --- |
| CN(C)CCCOc1ccc(-c2ccc3ncc4c(c3c2)n(C2CCOCC2)c(=O)n4C)cn1 [AZD0156] + C=CCn1c(=O)c2cnc(Nc3ccc(N4CCN(C)CC4)cc3)nc2n1-c1cccc(C(C)(C)O)n1 [AZD1775] (first compound max 1 µM, partner max 1 µM) | 0.96 | 0.372 | 0.311 | 0.446 | 0.494 | 0.515 | 0.494 | 0.316 | 0.944 | 0.417 | 0.139 | 0.883 | 0.464 | 0.248 | 0.505 | 0.439 | 0.53 | 0.912 | 0.679 | 0.904 |
| CN(C)CCCOc1ccc(-c2ccc3ncc4c(c3c2)n(C2CCOCC2)c(=O)n4C)cn1 [AZD0156] + CCN(CCO)CCCOc1ccc2c(Nc3cc(CC(=O)Nc4cccc(F)c4)[nH]n3)ncnc2c1 [AZD2811] (first compound max 1 µM, 7x7, partner max 1 µM) | 0.501 | 0.957 | 0.182 | 0.167 | 0.287 | 0.21 | 0.369 | 0.194 | 0.359 | 0.237 | 0.0518 | 0.329 | 0.143 | 0.0613 | 0.181 | 0.278 | 0.499 | 0.882 | 0.304 | 0.605 |
| CN(C)CCCOc1ccc(-c2ccc3ncc4c(c3c2)n(C2CCOCC2)c(=O)n4C)cn1 [AZD0156] + C[C@@H]1COCCN1C2=NC(=NC(=C2)C3(CC3)[S@](=N)(=O)C)C4=C5C=CNC5=NC=C4 [AZD6738] (first compound max 1 µM, 7x7, partner max 10 µM) | 0.94 | 0.779 | 0.696 | 0.491 | 0.665 | 0.632 | 0.394 | 0.528 | 0.977 | 0.837 | 0.414 | 0.912 | 0.403 | 0.299 | 0.558 | 0.525 | 0.717 | 0.912 | 0.713 | 0.84 |
| CN(C)CCCOc1ccc(-c2ccc3ncc4c(c3c2)n(C2CCOCC2)c(=O)n4C)cn1 [AZD0156] + O=C(c1cc(Cc2n[nH]c(=O)c3ccccc23)ccc1F)N1CCN(C(=O)C2CC2)CC1 [Olaparib] (first compound max 3 µM, partner max 3 µM) | 0.321 |  | 0.129 | 0.257 | 0.281 | 0.329 | 0.218 | 0.304 | 0.89 | 0.324 | 0.283 | 0.156 | 0.229 |  | 0.266 | 0.392 | 0.323 | 0.368 | 0.354 | 0.313 |
| C=CCn1c(=O)c2cnc(Nc3ccc(N4CCN(C)CC4)cc3)nc2n1-c1cccc(C(C)(C)O)n1 [AZD1775] + C1CN(CCC1(C(=O)N[C@@H](CCO)C2=CC=C(C=C2)Cl)N)C3=NC=NC4=C3C=CN4 [Capivasertib] (first compound max 3 µM, partner max 3 µM) | 0.964 |  | 0.441 | 0.948 | 0.667 | 0.664 | 0.757 | 0.577 | 1 | 0.706 | 0.61 | 0.965 | 0.583 |  | 0.748 | 0.635 | 0.623 | 0.999 | 0.695 | 0.87 |
| C=CCn1c(=O)c2cnc(Nc3ccc(N4CCN(C)CC4)cc3)nc2n1-c1cccc(C(C)(C)O)n1 [AZD1775] + C[C@@H]1COCCN1C2=NC(=NC(=C2)C3(CC3)[S@](=N)(=O)C)C4=C5C=CNC5=NC=C4 [AZD6738] (first compound max 1 µM, partner max 10 µM) | 0.978 | 0.886 | 0.667 | 0.769 | 0.757 | 0.665 | 0.823 | 0.662 | 1 | 0.73 | 0.648 | 0.935 | 0.538 | 0.404 | 0.712 | 0.704 | 0.81 | 0.952 | 0.732 | 0.917 |
| C=CCn1c(=O)c2cnc(Nc3ccc(N4CCN(C)CC4)cc3)nc2n1-c1cccc(C(C)(C)O)n1 [AZD1775] + O=C(c1cc(Cc2n[nH]c(=O)c3ccccc23)ccc1F)N1CCN(C(=O)C2CC2)CC1 [Olaparib] (first compound max 1 µM, partner max 10 µM) | 0.917 | 0.409 | 0.362 | 0.654 | 0.635 | 0.515 | 0.613 |  | 0.992 | 0.332 | 0.171 | 0.845 | 0.52 | 0.302 | 0.579 | 0.563 | 0.434 | 0.868 | 0.698 | 0.915 |
| CCN(CCO)CCCOc1ccc2c(Nc3cc(CC(=O)Nc4cccc(F)c4)[nH]n3)ncnc2c1 [AZD2811] + C=CCn1c(=O)c2cnc(Nc3ccc(N4CCN(C)CC4)cc3)nc2n1-c1cccc(C(C)(C)O)n1 [AZD1775] (first compound max 1 µM, partner max 1 µM) | 0.932 | 0.964 | 0.264 | 0.491 | 0.547 | 0.479 | 0.704 | 0.333 | 0.937 | 0.303 | 0.148 | 0.863 | 0.518 | 0.212 | 0.489 | 0.436 | 0.603 | 0.917 | 0.708 | 0.889 |
| CN(CCO)CC[C@H](CSc1ccccc1)Nc1ccc(S(=O)(=O)NC(=O)c2ccc(N3CCC([C@@H](O)c4ccccc4-c4ccc(Cl)cc4)CC3)cc2)cc1S(=O)(=O)C(F)(F)F [AZD4320] + Cn1cnc2c(F)c(Nc3ccc(Br)cc3Cl)c(C(=O)NOCCO)cc21 [Selumetinib] (first compound max 1 µM, 7x7, partner max 3 µM) | 1 | 0.914 | 0.508 | 0.971 | 0.709 | 0.3 | 0.517 | 0.842 | 0.959 | 0.402 | 0.355 |  | 0.576 | 0.512 | 0.907 | 0.924 | 0.212 | 0.901 | 0.619 | 0.966 |
| CS(=O)(=O)CCNCc1ccc(-c2ccc3ncnc(Nc4ccc(OCc5cccc(F)c5)c(Cl)c4)c3c2)o1 [Lapatinib] + Cn1cnc2c(F)c(Nc3ccc(Br)cc3Cl)c(C(=O)NOCCO)cc21 [Selumetinib] (first compound max 10 µM, 7x7, partner max 10 µM) | 0.661 | 0.802 | 0.547 |  | 0.775 |  | 0.289 |  | 0.472 |  |  | 0.644 |  |  | 0.214 | 0.402 |  | 0.521 |  | 0.432 |
| CS(=O)(=O)CCNCc1ccc(-c2ccc3ncnc(Nc4ccc(OCc5cccc(F)c5)c(Cl)c4)c3c2)o1 [Lapatinib] + NC1(c2ccc(-c3nc4ccn5c(=O)[nH]nc5c4cc3-c3ccccc3)cc2)CCC1 [MK-2206] (first compound max 10 µM, 7x7, partner max 10 µM) | 0.778 | 0.847 | 0.545 |  | 0.891 | 0.947 | 0.426 |  | 0.99 | 0.953 | 0.835 | 0.904 |  |  | 0.503 | 0.927 |  | 0.947 | 0.894 | 0.81 |
| CCc1c2c(nc3ccc(O)cc13)-c1cc3c(c(=O)n1C2)COC(=O)[C@]3(O)CC [SN-38] + O=C(c1cc(Cc2n[nH]c(=O)c3ccccc23)ccc1F)N1CCN(C(=O)C2CC2)CC1 [Olaparib] (first compound max 0.3 µM, 7x7, partner max 10 µM) | 0.968 | 0.799 | 0.786 |  | 0.9 | 0.63 | 0.96 |  | 1 | 0.654 |  | 0.755 |  |  | 0.682 | 0.889 | 0.842 | 0.987 | 0.766 | 1 |
| Cc1nc(-c2cn3c(n2)-c2ccc(-c4cnn(C(C)(C)C(N)=O)c4)cc2OCC3)n(C(C)C)n1 [Taselisib] + O=C(Nc1ccc2[nH]nc(-c3ccncc3)c2c1)[C@@H]1CCN(CC(=O)N2CCN(c3ccc(-c4ncccn4)cc3)CC2)C1 [SCH772984] (first compound max 10 µM, 7x7, partner max 5 µM) | 0.932 | 0.942 | 0.66 |  | 1 |  | 0.703 |  | 0.961 |  |  | 0.954 |  |  | 0.355 | 0.924 |  | 0.948 |  | 0.667 |
